Tested on: THF-containing double-stranded 17-mer oligodeoxynucleotide (DNA, mismatch bulge abasic, tetrahydrofuran (THF, abasic site analogue) at 6 of strand 1) TCACCNTCGTACGACTC/GAGTCGTACGACGGTGA
Test: thiazole orange displacement, fluorescence
Conditions: 100 mM KCl, 20 mM Tris-HCl pH 7.4, 0.01% Tween-20, room temperature, 250 nM thiazole orange displaced, 50 nM DNA

Row | SMILES | apparent DNA binding constant
1 | NCCNc1ccc(NCCN)c2c1C(=O)c1ccncc1C2=O | 1.25 ± 0.32 µM
2 | O=C1c2c(O)ccc(O)c2C(=O)c2c(NCCNCCO)ccc(NCCNCCO)c21 | 0.083 ± 0.003 µM
